Test results published in ChEMBL document CHEMBL6114960, “Discovery of First-in-Class FXR and HSD17B13 Dual Modulator for the Treatment of Metabolic Dysfunction-Associated Fatty Liver Disease” (J Med Chem, 2025).
pEC50, pIC50: −log10 of the molar value.

What was measured:
[1] = molecular target: T1, Bile acid receptor (Homo sapiens, UniProt Q96RI1); experiment: Agonist activity at FXR (unknown origin) transfected in human HepG2 cells incubated for 24 hrs by luciferase assay; type: cell-based
T1 sequence (Q96RI1 whole entry): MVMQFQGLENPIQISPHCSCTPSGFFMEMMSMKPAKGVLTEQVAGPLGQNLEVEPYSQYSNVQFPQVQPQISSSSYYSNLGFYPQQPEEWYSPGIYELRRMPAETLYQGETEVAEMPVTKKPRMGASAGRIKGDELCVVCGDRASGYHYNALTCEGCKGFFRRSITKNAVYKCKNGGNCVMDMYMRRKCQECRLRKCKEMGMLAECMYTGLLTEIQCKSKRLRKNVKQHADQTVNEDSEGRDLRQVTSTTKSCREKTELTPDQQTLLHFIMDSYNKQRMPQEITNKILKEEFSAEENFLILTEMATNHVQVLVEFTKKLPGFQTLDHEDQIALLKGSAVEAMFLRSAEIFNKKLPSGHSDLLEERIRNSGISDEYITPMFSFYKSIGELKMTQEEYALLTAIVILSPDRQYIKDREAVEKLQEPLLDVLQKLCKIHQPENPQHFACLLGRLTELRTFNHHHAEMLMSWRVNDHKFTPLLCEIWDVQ

[2] = molecular target: T1, Bile acid receptor; experiment: Agonist activity at FXR-LBD (unknown origin) incubated for 3 hrs in presence of fluorescein-coactivator peptide by TR-FRET analysis
[3] = molecular target: T2, 17-beta-hydroxysteroid dehydrogenase 13 (Homo sapiens, UniProt Q7Z5P4)
T2 sequence (Q7Z5P4 whole entry): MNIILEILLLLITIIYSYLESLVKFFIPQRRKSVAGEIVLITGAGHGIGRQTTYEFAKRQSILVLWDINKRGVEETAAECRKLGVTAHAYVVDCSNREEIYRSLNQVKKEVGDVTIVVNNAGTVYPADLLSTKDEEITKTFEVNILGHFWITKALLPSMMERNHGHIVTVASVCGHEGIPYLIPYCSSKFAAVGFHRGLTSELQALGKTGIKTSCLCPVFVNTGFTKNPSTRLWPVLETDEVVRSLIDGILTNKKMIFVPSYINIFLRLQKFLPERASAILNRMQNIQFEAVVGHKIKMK
Description: Inhibition of HSD17B13 (unknown origin) using beta-estradiol and FAC-NAD+ as substrate incubated for 2 hrs by NAD(P)H-Glo detection reagent based luminescence assay

[4] = tested on: Mus musculus; experiment: Anti-MASH activity in western diet and CCl4 co-induced male C57BL/6 mouse model assessed as NAFLD activity score at 20 mg/kg, po administered with high fat diet and sugar water for 12 weeks with subsequent CCl4 administration three times a week and measured after 4 weeks of compound administration via gavage starting from 9th week (Rvb > 6); type: functional
[5] = molecular target: T1, Bile acid receptor; experiment: Agonist activity at FXR (unknown origin)

Row | Structure (SMILES) | pEC50 [1] | pEC50 [2] | further results
1 | CC[C@H]1[C@@H](O)[C@@H]2[C@H](CC[C@]3(C)[C@@H]([C@H](C)CCC(=O)O)CC[C@@H]23)[C@@]2(C)CC[C@@H](O)C[C@@H]12 [OBETICHOLIC ACID] | – | – | pIC50 [3]: < 5.00; Activity [4]: 3.5
2 | O=C(O)c1ccc(-c2ccc(OCc3c(-c4c(Cl)cccc4Cl)noc3C3CC3)cn2)cc1 | – | 6.16 | –
3 | CC(C)c1onc(-c2ccccc2C(F)(F)F)c1COc1ccc(-c2ccc(C(=O)O)cc2)cc1 | 6.28 | 6.63 | –
4 | O=C(NC1CC1)c1cccc(-c2ccc(OCc3c(-c4c(Cl)cccc4Cl)noc3C3CC3)cc2)c1 | – | 6.24 | –
5 | OCCOc1ccc(-c2ccc(OCc3c(-c4c(Cl)cccc4Cl)noc3C3CC3)cc2)cc1 | – | < 5.00 | –
6 | O=C(O)c1ccnc(N2CC(O)(c3ccc(OCc4c(-c5c(Cl)cccc5Cl)noc4C4CC4)cc3Cl)C2)c1 [CILOFEXOR] | – | – | pEC50 [5]: 7.24
7 | O=C(O)c1ccc(-c2ccc(OCc3c(-c4c(Cl)cccc4Cl)noc3C3CC3)cc2)cc1Cl | 6.62 | 6.71 | –
8 | O=C(O)C1=CC2NC(c3ccc(OCc4c(-c5c(Cl)cccc5Cl)noc4C4CC4)cc3)=NC2C=C1 (stereo unspecified) | – | – | pIC50 [3]: 5.36
9 | O=C(NCC1CC1)c1cccc(-c2ccc(OCc3c(-c4c(Cl)cccc4Cl)noc3C3CC3)cc2)c1 | – | < 5.00 | –
10 | CN(C)C(=O)c1cccc(-c2ccc(OCc3c(-c4c(Cl)cccc4Cl)noc3C3CC3)cc2)c1 | 6.31 | 6.68 | –
11 | CC(C)(C)NC(=O)c1cccc(-c2ccc(OCc3c(-c4c(Cl)cccc4Cl)noc3C3CC3)cc2)c1 | – | < 5.00 | –
12 | O=C(O)c1ccc(-c2ccc(OCc3c(-c4c(Cl)cccc4Cl)noc3C3CC3)cc2)s1 | 6.31 | 6.57 | –
13 | CC(C)NC(=O)c1ccc(-c2ccc(OCc3c(-c4c(Cl)cccc4Cl)noc3C3CC3)cc2)cc1 | – | 6.01 | –
14 | OCC1(c2cccc(-c3ccc(OCc4c(-c5c(Cl)cccc5Cl)noc4C4CC4)cc3)c2)CC1 | – | < 5.00 | –
15 | O=C(O)c1c(F)cc(-c2ccc(OCc3c(-c4c(Cl)cccc4Cl)noc3C3CC3)cc2)cc1F | – | 6.27 | –
16 | O=C(c1cccc(-c2ccc(OCc3c(-c4c(Cl)cccc4Cl)noc3C3CC3)cc2)c1)N1CCOCC1 | – | < 5.00 | –
17 | CN(C)C(=O)c1ccc(-c2ccc(OCc3c(-c4c(Cl)cccc4Cl)noc3C3CC3)cc2)cc1 | – | 6.32 | –

More lines, main results first:

Row | pEC50 [1] | pEC50 [2] | Structure (SMILES) | further results
18 | 6.52 | 6.87 | Cc1cc(OCc2c(-c3c(Cl)cccc3Cl)noc2C2CC2)ccc1-c1ccc(C(=O)O)cc1 | –
19 | 6.58 | 7.07 | Cc1cc(OCc2c(-c3c(Cl)cccc3Cl)noc2C2CC2)cc(C)c1-c1ccc(C(=O)O)cc1 | –
20 | 6.54 | 6.84 | CNC(=O)c1ccc(-c2ccc(OCc3c(-c4c(Cl)cccc4Cl)noc3C3CC3)cc2)cc1 | –
21 | 6.43 | 6.84 | NC(=O)c1ccc(-c2ccc(OCc3c(-c4c(Cl)cccc4Cl)noc3C3CC3)cc2)cc1 | –
22 | 6.32 | 6.84 | O=C(O)c1ccc(-c2ccc(OCc3c(-c4c(Cl)cccc4Cl)noc3C3CC3)c(F)c2)cc1 | –
23 | 6.73 | 6.92 | O=C(O)c1cccc2nc(-c3ccc(OCc4c(-c5c(Cl)cccc5Cl)noc4C4CC4)cc3)cn12 | pIC50 [3]: 6.07
24 | 6.55 | 6.94 | O=C(O)c1ccc(-c2ccc(OCc3c(-c4c(Cl)cccc4Cl)noc3C3CC3)cc2)c(F)c1 | –
25 | 6.48 | 6.89 | O=C(O)c1ccc(-c2ccc(OCc3c(-c4c(Cl)cccc4Cl)noc3C3CC3)cc2)nc1 | –
26 | 6.54 | 6.92 | O=C(O)c1ccc(-c2ccc(OCc3c(-c4c(Cl)cccc4Cl)noc3C3CC3)cc2)c(C(F)(F)F)c1 | –
